Structures can show the parent of a compound that is named as a salt.

Holding throughout (type): physicochemical
Data set [1] is described as follows: Water activity study of the crystalline potassium salt forms (acetone/water suspension, XRPD). The settings on record: for Relative stability of crystalline forms: versus Form III of the potassium salt. The method, then: A water activity study of the potassium salt forms was conducted in two groups: (i) Form I and Form III of the potassium salt, and (ii) Form II and Form III of the potassium salt.
Each suspension was shaken at 700 rpm in a shaker at 25° C., 35° C., 45° C., and 50° C., and the sample was analyzed by XRPD.

Data set [2] in a line: Heating of potassium salt forms (XRPD/DSC after heating).
Data set [3] can be described thus: Solubility in simulated biological fluid (FaSSGF and FaSSIF) at 37° C., HPLC; pH of filtrate, XRPD of filter cake. The settings on record: 0.5-hour mark. As for the experimental part: Approximately between 15 mg and 24 mg of sample was suspended in 5 mL or 8 mL of FaSSGF or FaSSIF, respectively. The resulting suspension was shaken at 700 rpm with a QQMSC-100 shaker at 37° C. The suspension was sampled and filtered at certain time intervals, which was achieved by sampling 1000 μL of each suspension which was then filtered and diluted, diluting the resulting filtrate for HPLC analysis to assess solubility. The pH of the filtrate was measured, and the filter cake was analyzed by XRPD.
Approximately 15 mg to 24 mg of sample was suspended in 5 or 8 mL of FaSSGF or FaSSIF, respectively. The resulting suspension was shaken at 700 rpm with a QQMSC-100 shaker at 37° C. The suspension was sampled and filtered at certain time intervals, which was achieved by sampling 1000 μL of each suspension was filtered and diluted, diluting the resulting filtrate for HPLC analysis to assess solubility. The pH of the filtrate was measured, and the filter cake was analyzed by XRPD.
Approximately 15 mg to 24 mg of sample was suspended in 5 or 8 mL of FaSSGF or FaSSIF, respectively. The resulting suspension was shaken at 700 rpm with a QQMSC-100 shaker at 37° C. The suspension was sampled and filtered in certain time interval, which was achieved by sampling 1000 μL of each suspension was filtered and diluted, diluting the resulting filtrate for HPLC analysis to assess solubility. The pH of the filtrate was measured, and the filter cake was analyzed by XRPD.

Data set [4] is described as follows: Solid-state stability (60° C./closed and 40° C./75% relative humidity open, up to seven days; HPLC purity, XRPD). As for the experimental part: HPLC method for stability and solubility testing is listed below.
• Column: Ascentis® Express C18 4.6*150 mm*2.7 μm • Mobile Phase A: 0.05% trifluoroacetic acid in water • Mobile Phase B: Methanol • Gradient (T/B %): 0/10, 10/100, 13.5/10, 15/10 • Column Temperature: 40° C. • Detector: DAD; 220 nm • Flow rate: 1.0 mL/min • Injection volume: 1 μL • Concentration: 1 mg/mL • Run time: 15 minutes • Diluent: Methanol:Water 9:1 (v/v)
The solid-state stability of Form III of the potassium salt was performed using the following protocol: • (1) A sample of Form III of the potassium salt was placed at 60° C./closed and 40° C./75% relative humidity (open) conditions for up to seven days. At the onset of the test (day 0) and day 7 of the test, the sample was dissolved in a diluent to prepare a 1 mg/mL solution for HPLC purity analysis. The solid sample was analyzed by XRPD to assess the crystal form of each solid at day 7. […] The XRPD data confirmed the physicochemical stability of Form III of the potassium salt under both closed and open conditions. […]

The nature of data set [5]: Dynamic vapor sorption (DVS). The settings on record: for DVS weight gain: 25° C. As for the experimental part: Moisture sorption/desorption data was collected on a Vsorp Dynamic Moisture Sorption Analyzer (ProUmid GmbH & Co. KG, Germany). The sample was placed into a tared sample chamber and automatically weighed.
• Equilibrium Condition: 0.01%/40 min • Time between weighing cycles: 10 minutes • Minimum time per climate cycle: 50 minutes • Maximum time per climate cycle: 2.0 hour • Balanced condition: 25° C. at 60% […] for 4 hours • Sample temperature: 25° C. • Adsorption: 70, 80, 90 • Desorption: 80, 70, 60, 50, 40, 30, 20, 10, 0 • Adsorption: 10, 20, 30, 40, 50, 60

Take `CNC(=O)c1ncn2cc(-c3c(F)ccc(NS(=O)(=O)c4cc(Cl)cnc4OC)c3F)ncc12` [Potassium salt Form I, 6-(3-((5-chloro-2-methoxypyridine)-3-sulfonamido)-2,6-difluorophenyl)-N-methylimidazo[1,5-a]pyrazine-1-carboxamide]: the “Time of conversion to Form III of the potassium salt” value in data set [1] (KF wt. %>0.19, 25-50° C., KF wt. %~0.1, 25° C. in acetone/water) was not above 1 days. For the same molecule, the “Relative stability of crystalline forms” value in data set [1] (KF wt. %≤0.1 at 35-50° C. in acetone/water) is “more stable”. The “Stability of the hydrate” value in data set [2] (24° C.±2° C. and 50-80% relative humidity) is reported as “stable”. The “Changes to XRPD pattern or DSC thermogram upon heating” value in data set [2] (heating to 180° C.) is “No changes”.

Regarding `CNC(=O)c1ncn2cc(-c3c(F)ccc(NS(=O)(=O)c4cc(Cl)cnc4OC)c3F)ncc12` [Potassium salt Form II, 6-(3-((5-chloro-2-methoxypyridine)-3-sulfonamido)-2,6-difluorophenyl)-N-methylimidazo[1,5-a]pyrazine-1-carboxamide], the “Relative stability of crystalline forms” value in data set [1] (aw≥0.93 at temperatures≤25° C.) is reported as “more stable”. Moreover, in data set [2] (heating to 160° C.), the “Changes to XRPD patterns and DSC thermograms after heating” value is “slight change”.

Regarding `CNC(=O)c1ncn2cc(-c3c(F)ccc(NS(=O)(=O)c4cc(Cl)cnc4OC)c3F)ncc12` [Sodium salt Form III, 6-(3-((5-chloro-2-methoxypyridine)-3-sulfonamido)-2,6-difluorophenyl)-N-methylimidazo[1,5-a]pyrazine-1-carboxamide], the “times more soluble than the free acid (Form II)” value in data set [3] (FaSSGF) is listed as “about 230 times”; in data set [3] (FaSSIF), “about 100 times”. The “Purity (Area %) 220 nm” value in data set [4] (0 day) was determined as 99.87 Area %; in data set [4] (40° C./75% RH (open), 7 days), 99.87 Area %; in data set [4] (60° C./closed, 7 days) it was 99.85 Area %. Besides, in data set [4] (both closed (60° C.) and open (40° C./75% RH) conditions for seven days), the “physical and chemical stability” value was “maintained physical and chemical stability”. Moreover, the DVS weight gain is on record as 2.6% in data set [5] (0 to 30% relative humidity); “around 2.6%” in data set [5] (0 to 30% relative humidity, listed as Form III of the sodium salt); 3.3% in data set [5] (0 to 80% relative humidity); 4.7% in data set [5] (0 to 90% relative humidity); “around 0.7%” in data set [5] (60 to 80% relative humidity, listed as Form III of the sodium salt); 1.4% in data set [5] (80 to 90% relative humidity). Besides, the “XRPD pattern after DVS testing” value in data set [5] (listed as Form III of the sodium salt) was “did not change”.

The values are drawn from US20260224563A1, “CRYSTALLINE FORMS OF 6-(3-((5-CHLORO-2-METHOXYPYRIDINE)-3-SULFONAMIDO)-2,6-DIFLUOROPHENYL)-N-METHYLIMIDAZO[1,5-A]PYRAZINE-1-CARBOXAMIDE AND METHODS FOR USING THE SAME” (HIBERCELL, INC., priority 2023, published 2026).
